Experimental data reported in publication PMC8241168, “Cholesterol–PEG comodified poly (N-butyl) cyanoacrylate nanoparticles for brain delivery: in vitro and in vivo evaluations” (Drug Delivery, 2017).

Tests used:
[1] = Pharmacokinetic study, plasma C6 after IV administration; assay type: in vivo; conditions: rats, IV 0.5 mg/kg
Method: Wistar rats (180–200 g) were obtained from the Institute of Laboratory Animal Science, Chinese Academy of Medical Sciences, Beijing, China, and all animal experiments were performed in accordance with the regulations of the Animal Care and Use Committee of the Chinese Academy of Medical Sciences. […] A standard diet of food and water was supplied ad libitum during the experiments. A polyethylene catheter (Portex, Hythe, UK) was inserted through the right jugular veins of all rats one day prior to the pharmacokinetic experiment, and flushed with 100 U/mL heparin in 0.9% saline. […] Subsequently, 100 μL of plasma was obtained by centrifugation at 5000 rpm for 7 min at 0 °C, and the serum was collected. The measurement of C6 in the samples was analyzed by a fluorescence microplate reader as described earlier.

[2] = test system: bEnd.3 cells; assay: Uptake of C6 CLS-PEG NPs by bEnd.3 cells; assay type: cell-based, mouse; conditions: 20–100 μg/mL, 37 °C, 30 min to 4 h
Method: BEnd. 3 cells were seeded into a 6-well plate and cultured for 24 h. Then, the medium was replaced with different concentrations (20–100 μg/mL) of free C6 or CLS-PEG NPs encapsulated with C6, and incubated at 37 °C for 2 h. To study the effects of incubation time on CLS-PEG NPs uptake, the CLS-PEG NPs loaded C6 (50 μg/mL) and the free C6 solution were added into the wells, and the plate was incubated at 37 °C for 30 min, 1 h, 2 h, or 4 h. At the end of the experiment, the cells were washed with ice-cold PBS three times. Subsequently, the cells were lysed with cell lysate (Beijing Saichi Biotechnology Co., Ltd., China). The quantitative measurement of intracellular C6 in bEnd.3 cell lysates was analyzed by a fluorescence microplate reader as described earlier. Total cell protein concentrations of the bEnd.3 cells were determined using a BCA protein assay (Beijing Kangwei Century Biotechnology Co., Ltd., China). The uptake of CLS-PEG NPs by bEnd.3 cells was calculated and expressed as the amount of CLS-PEG NPs (μg) taken up per mg of cell protein.

[3] = Specificity to the brain, confocal laser scanning microscopy of brain sections; assay type: in vivo; conditions: rats, IV, 0.5 h after dosing
Method: Subsequently, the brain tissues were removed, washed with PBS, and fixed in 4% formaldehyde solution. After snap freezing in liquid nitrogen, the samples were embedded in […]. compound (Sakura Finetechnical, Tokyo, Japan) and cut into thin sections (10 μm). The slices were stained for cell nuclei with DAPI for 15 min in the dark and then washed three times with cold PBS. The sample was monitored by confocal laser scanning microscopy (Zeiss LSM710, Göttingen, Germany). ZEN Image Software 2012 was used to perform the image recording and image analysis. The image included 512 × 512 pixels measuring 2.77 × 2.77 μm^2.

[4] = Tissue distribution studies after IV administration; assay type: in vivo, rats; conditions: IV 0.5 mg/kg; for Tmax / AUC0-t / Cmax: C6, rats; for AUC0-t / Cmax: n = 3
Method: Wistar rats (180–200 g) were obtained from the Institute of Laboratory Animal Science, Chinese Academy of Medical Sciences, Beijing, China, and all animal experiments were performed in accordance with the regulations of the Animal Care and Use Committee of the Chinese Academy of Medical Sciences. […] A standard diet of food and water was supplied ad libitum during the experiments. […] The samples were stored at −20 °C until further analysis. The drug-targeting index (DTI) is considered an important parameter for tissue targeting efficiency, and was calculated using the following formula: DTI=AUCx/AUCp(NPs)/AUCx/AUCP(Free drug) Where “AUCx” is the AUC of tissue x, and “AUCp” is the AUC of the plasma.

- AUC0-t ([1]; C6 in plasma, n = 6): 15.8 ± 2.4 µg·min/mL
- AUC0-∞ ([1]; C6 in plasma, n = 6): 16.0 ± 2.3 µg·min/mL
- C0 ([1]; C6 in plasma, n = 6): 0.8284 ± 0.139 µg/mL
- CL ([1]; C6 in plasma, n = 6): 6.4 ± 0.9 mL/min
- Vd, λz ([1]; C6 in plasma, n = 6): 0.6 ± 0.3 L
- t1/2, λz ([1]; C6 in plasma, n = 6): 60.1 ± 24.0 min
- time after injection at which C6 was undetectable in plasma [1]: 4 h
- C6 fluorescent signal in the brain [3]: too weak to be distinguished
- Tmax ([4]; Brain): 30 min
- AUC0-t ([4]; Brain): 3.84 ± 0.21 µg·min/mL
- Cmax ([4]; Brain): 45.64 ± 2.25 ng/g
- Tmax ([4]; Heart): 15 min
- AUC0-t ([4]; Heart): 8.45 ± 0.93 µg·min/mL
- Cmax ([4]; Heart): 113.89 ± 16.48 ng/g
- Tmax ([4]; Kidney): 30 min
- AUC0-t ([4]; Kidney): 2.56 ± 0.44 µg·min/mL
- Cmax ([4]; Kidney): 22.20 ± 1.91 ng/g
- Tmax ([4]; Liver): 15 min
- AUC0-t ([4]; Liver): 141.71 ± 13.25 µg·min/mL
- Cmax ([4]; Liver): 2685.53 ± 356.67 ng/g
- Tmax ([4]; Lung): 30 min
- AUC0-t ([4]; Lung): 63.88 ± 5.62 µg·min/mL
- Cmax ([4]; Lung): 900.02 ± 67.86 ng/g
- Tmax ([4]; Spleen): 15 min
- AUC0-t ([4]; Spleen): 271.02 ± 16.03 µg·min/mL
- Cmax ([4]; Spleen): 3848.83 ± 339.27 ng/g
- distribution of C6 in the brain ([4]; rats): very little distribution in the brain
Structure (SMILES): CCN(CC)c1ccc2cc(-c3nc4ccccc4s3)c(=O)oc2c1 [Free drug, coumarin-6]
- cellular uptake by bEnd.3 cells [2]: only minimally entered the cells
